Data as given in PubChem BioAssay AID248 (DTP/NCI, 2004).
“And” between values parts separate entries of the source, which are not always exact repeats. Identical values can stand only once. Inconclusive results and toxic doses are left out. Cut-off read from the data, not from the text of the source: active = T/C of 150% or more; inactive = T/C below 125%.

Tested on: L1210 leukemia ip in BDF1 mice, survival T/C
Assay: NCI In Vivo Anticancer Drug Screen. Data for tumor model L1210 Leukemia (intraperitoneal) in B6D2F1 (BDF1) mice
Details: endpoint: mean survival time, higher = longer survival
How it was run: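 Mice bearing the transplanted tumor received compound or vehicle. Survival of the treated group was divided by that of the vehicle-treated control group to give the ratio.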

[1] = dose: 50.0 mg/kg/injection, schedule: Q01DX009 (ip), vehicle: saline with Tween-80
[2] = dose: 100.0 mg/kg/injection, schedule: Q01DX001 (ip), vehicle: carboxymethylcellulose (CMC)
[3] = dose: 100.0 mg/kg/injection, schedule: Q01DX009 (ip), vehicle: saline with Tween-80
[4] = dose: 200.0 mg/kg/injection, schedule: Q01DX001 (ip), vehicle: carboxymethylcellulose (CMC)
[5] = dose: 400.0 mg/kg/injection, schedule: Q01DX001 (ip), vehicle: carboxymethylcellulose (CMC)
[6] = dose: 100.0 mg/kg/injection, schedule: Q01DX009 (ip), vehicle: Klucel (hydroxypropylcellulose) (HPC)
[7] = dose: 100.0 mg/kg/injection, schedule: Q04DX003 (ip), vehicle: Klucel (hydroxypropylcellulose) (HPC)
[8] = dose: 200.0 mg/kg/injection, schedule: Q01DX009 (ip), vehicle: Klucel (hydroxypropylcellulose) (HPC)
[9] = dose: 200.0 mg/kg/injection, schedule: Q04DX003 (ip), vehicle: Klucel (hydroxypropylcellulose) (HPC)
[10] = dose: 400.0 mg/kg/injection, schedule: Q04DX003 (ip), vehicle: Klucel (hydroxypropylcellulose) (HPC)
[11] = dose: 50.0 mg/kg/injection, schedule: Q01DX009 (ip), vehicle: Klucel (hydroxypropylcellulose) (HPC)
[12] = dose: 75.0 mg/kg/injection, schedule: Q01DX009 (ip), vehicle: Klucel (hydroxypropylcellulose) (HPC)
[13] = dose: 150.0 mg/kg/injection, schedule: Q01DX009 (ip), vehicle: Klucel (hydroxypropylcellulose) (HPC)
[14] = dose: 100.0 mg/kg/injection, schedule: Q04DX003 (ip), vehicle: saline with Tween-80
[15] = dose: 200.0 mg/kg/injection, schedule: Q04DX003 (ip), vehicle: saline with Tween-80
[16] = dose: 400.0 mg/kg/injection, schedule: Q04DX003 (ip), vehicle: saline with Tween-80
[17] = dose: 100.0 mg/kg/injection, schedule: Q01DX009 (ip), vehicle: saline
[18] = dose: 200.0 mg/kg/injection, schedule: Q01DX009 (ip), vehicle: saline
[19] = dose: 400.0 mg/kg/injection, schedule: Q01DX009 (ip), vehicle: saline
[20] = dose: 100.0 mg/kg/injection, schedule: Q01DX001 (ip), vehicle: saline
[21] = dose: 200.0 mg/kg/injection, schedule: Q01DX001 (ip), vehicle: saline

Measured: T/C

O=C(/C=C/c1cccc(Cl)c1)c1ccc(Cl)cc1
inactive: dose: 25.0 mg/kg/injection, schedule: Q01DX009 (ip), vehicle: saline with Tween-80 95 % of control and 96 % of control | dose: 25.0 mg/kg/injection, schedule: Q04DX003 (ip), vehicle: carboxymethylcellulose (CMC) 95 % of control and 103 % of control | [1] 93 % of control and 95 % of control | dose: 50.0 mg/kg/injection, schedule: Q04DX003 (ip), vehicle: carboxymethylcellulose (CMC) 105 % of control and 89 % of control | [2] 94 % of control | dose: 100.0 mg/kg/injection, schedule: Q01DX009 (ip), vehicle: carboxymethylcellulose (CMC) 86 % of control | [3] 92 % of control and 91 % of control | dose: 100.0 mg/kg/injection, schedule: Q04DX002 (ip), vehicle: carboxymethylcellulose (CMC) 92 % of control and 100 % of control | [4] 92 % of control | dose: 200.0 mg/kg/injection, schedule: Q01DX009 (ip), vehicle: carboxymethylcellulose (CMC) 90 % of control | dose: 200.0 mg/kg/injection, schedule: Q04DX002 (ip), vehicle: carboxymethylcellulose (CMC) 100 % of control and 107 % of control | dose: 200.0 mg/kg/injection, schedule: Q04DX003 (ip), vehicle: carboxymethylcellulose (CMC) 96 % of control | [5] 92 % of control | dose: 400.0 mg/kg/injection, schedule: Q04DX002 (ip), vehicle: carboxymethylcellulose (CMC) 100 % of control and 102 % of control | dose: 400.0 mg/kg/injection, schedule: Q04DX003 (ip), vehicle: carboxymethylcellulose (CMC) 91 % of control

N#CC(CC(=O)c1ccc2c(c1)OCO2)c1ccc2c(c1)OCO2 (stereo unspecified)
inactive: [6] 101 % of control | [7] 95 % of control | [8] 101 % of control | [9] 98 % of control | dose: 400.0 mg/kg/injection, schedule: Q01DX009 (ip), vehicle: Klucel (hydroxypropylcellulose) (HPC) 97 % of control | [10] 101 % of control

O=C1CC(c2cccc(S(=O)(=O)O)c2)=NN1c1ccc([N+](=O)[O-])cn1
inactive: dose: 12.5 mg/kg/injection, schedule: Q04DX003 (ip), vehicle: saline 95 % of control | dose: 25.0 mg/kg/injection, schedule: Q04DX003 (ip), vehicle: saline 95 % of control | dose: 50.0 mg/kg/injection, schedule: Q04DX003 (ip), vehicle: saline 95 % of control

c1ccc(-c2cc(-c3ccccc3)c3c([o+]2)CCCCCCCCCCCC3)cc1
inactive: [1] 108 % of control | [3] 108 % of control | dose: 200.0 mg/kg/injection, schedule: Q01DX009 (ip), vehicle: saline with Tween-80 97 % of control

CCOP(=O)(/C(C#N)=C/c1ccccc1)c1ccccc1 (stereo unspecified)
inactive: [11] 95 % of control | [12] 96 % of control | dose: 75.0 mg/kg/injection, schedule: Q04DX003 (ip), vehicle: Klucel (hydroxypropylcellulose) (HPC) 101 % of control | [13] 93 % of control | dose: 150.0 mg/kg/injection, schedule: Q04DX003 (ip), vehicle: Klucel (hydroxypropylcellulose) (HPC) 98 % of control | dose: 300.0 mg/kg/injection, schedule: Q04DX003 (ip), vehicle: Klucel (hydroxypropylcellulose) (HPC) 91 % of control

CC(C)(C)OC(=O)N/N=C/c1ccc2c(c1)CCC2
inactive: [14] 100 % of control | [15] 100 % of control | [16] 94 % of control

CCCOCC(O)CO (stereo unspecified)
inactive: [17] 100 % of control | dose: 100.0 mg/kg/injection, schedule: Q04DX003 (ip), vehicle: saline 107 % of control | [18] 98 % of control | dose: 200.0 mg/kg/injection, schedule: Q04DX003 (ip), vehicle: saline 102 % of control | [19] 102 % of control | dose: 400.0 mg/kg/injection, schedule: Q04DX003 (ip), vehicle: saline 110 % of control

Cn1cncc1CC1COC(=O)C1C(O)c1ccccc1 (stereo unspecified)
inactive: [20] 108 % of control | [21] 107 % of control

CCC(C)C(C(=O)OCCN(C)C)c1ccccc1 (stereo unspecified)
inactive: [14] 98 % of control | [15] 92 % of control

CCCCC(C#N)(CCCC)C(=O)OCC
inactive: [14] 93 % of control | [15] 98 % of control

CCCCSCCN
inactive: [12] 95 % of control | [13] 93 % of control

O=Cc1ccccc1B(O)O
inactive: [11] 96 % of control and 101 % of control | [6] 97 % of control and 100 % of control | [7] 98 % of control | [8] 105 % of control and 124 % of control | [9] 86 % of control

C=C(C)c1c2c(Sc3ccc(C(C)(C)C)cc3)cccc2cc2cccc(Sc3ccc(C(C)(C)C)cc3)c12
inactive: [14] 98 % of control | [15] 93 % of control | [16] 91 % of control

CC(=O)Oc1ccc(C2CC(=O)N(CCN(C)C)C2=O)cc1 (stereo unspecified)
inactive: [20] 107 % of control | [21] 90 % of control | dose: 400.0 mg/kg/injection, schedule: Q01DX001 (ip), vehicle: saline 100 % of control

N=C1SSC(=S)C1C(N)=O (stereo unspecified)
inactive: dose: 50.0 mg/kg/injection, schedule: Q01DX001 (ip), vehicle: carboxymethylcellulose (CMC) 94 % of control | [2] 96 % of control | [4] 100 % of control | [5] 100 % of control

CC(=O)/C(=C\c1ccccc1)c1ccccc1
inactive: [7] 96 % of control | [9] 91 % of control | [10] 98 % of control

Cc1cc(C)c2c(c1)C(=O)C(=O)c1cc(C)cc(C)c1-2
inactive: dose: 50.0 mg/kg/injection, schedule: Q04DX002 (ip), vehicle: Klucel (hydroxypropylcellulose) (HPC) 95 % of control | dose: 100.0 mg/kg/injection, schedule: Q04DX002 (ip), vehicle: Klucel (hydroxypropylcellulose) (HPC) 94 % of control and 92 % of control | dose: 200.0 mg/kg/injection, schedule: Q04DX002 (ip), vehicle: Klucel (hydroxypropylcellulose) (HPC) 98 % of control | dose: 400.0 mg/kg/injection, schedule: Q04DX002 (ip), vehicle: Klucel (hydroxypropylcellulose) (HPC) 116 % of control and 88 % of control

O=c1oc2ccc(N=Cc3ccc4c(c3)OCO4)cc2c2ccccc12
inactive: dose: 100.0 mg/kg/injection, schedule: Q01DX001 (ip), vehicle: other 91 % of control | dose: 200.0 mg/kg/injection, schedule: Q01DX001 (ip), vehicle: other 93 % of control | dose: 400.0 mg/kg/injection, schedule: Q01DX001 (ip), vehicle: other 93 % of control

Cc1ccc([N+](=O)[O-])cc1NC(=O)OCCOc1ccccc1
inactive: [17] 90 % of control | [18] 103 % of control | [19] 92 % of control

c1ccc2c(c1)CNNC2
inactive: dose: 25.0 mg/kg/injection, schedule: Q01DX009 (ip), vehicle: saline 97 % of control | dose: 50.0 mg/kg/injection, schedule: Q01DX009 (ip), vehicle: saline 96 % of control | [17] 102 % of control | [18] 103 % of control | [19] 105 % of control

CCC(O)C[As](=O)(O)c1ccccc1 (stereo unspecified)
inactive: dose: 1.56 mg/kg/injection, schedule: Q04DX003 (ip), vehicle: saline 94 % of control | dose: 3.13 mg/kg/injection, schedule: Q04DX003 (ip), vehicle: saline 105 % of control | dose: 6.25 mg/kg/injection, schedule: Q04DX003 (ip), vehicle: saline 96 % of control
